In data set [1] the target is RAC-alpha serine/threonine-protein kinase (Mus musculus) (UniProt P31750). Briefly: Inhibition of Akt-phosphorylation in mouse RAW264.7 cells at 5 to 10 ug/ml preincubated for 1 hr followed by LPS-stimulation for 1 hr by Western blot analysis. Type of data set: cell-based.
For data set [2], the target named is T1, Nitric oxide synthase, inducible (Mus musculus) (UniProt P29477).
T1 sequence (whole entry): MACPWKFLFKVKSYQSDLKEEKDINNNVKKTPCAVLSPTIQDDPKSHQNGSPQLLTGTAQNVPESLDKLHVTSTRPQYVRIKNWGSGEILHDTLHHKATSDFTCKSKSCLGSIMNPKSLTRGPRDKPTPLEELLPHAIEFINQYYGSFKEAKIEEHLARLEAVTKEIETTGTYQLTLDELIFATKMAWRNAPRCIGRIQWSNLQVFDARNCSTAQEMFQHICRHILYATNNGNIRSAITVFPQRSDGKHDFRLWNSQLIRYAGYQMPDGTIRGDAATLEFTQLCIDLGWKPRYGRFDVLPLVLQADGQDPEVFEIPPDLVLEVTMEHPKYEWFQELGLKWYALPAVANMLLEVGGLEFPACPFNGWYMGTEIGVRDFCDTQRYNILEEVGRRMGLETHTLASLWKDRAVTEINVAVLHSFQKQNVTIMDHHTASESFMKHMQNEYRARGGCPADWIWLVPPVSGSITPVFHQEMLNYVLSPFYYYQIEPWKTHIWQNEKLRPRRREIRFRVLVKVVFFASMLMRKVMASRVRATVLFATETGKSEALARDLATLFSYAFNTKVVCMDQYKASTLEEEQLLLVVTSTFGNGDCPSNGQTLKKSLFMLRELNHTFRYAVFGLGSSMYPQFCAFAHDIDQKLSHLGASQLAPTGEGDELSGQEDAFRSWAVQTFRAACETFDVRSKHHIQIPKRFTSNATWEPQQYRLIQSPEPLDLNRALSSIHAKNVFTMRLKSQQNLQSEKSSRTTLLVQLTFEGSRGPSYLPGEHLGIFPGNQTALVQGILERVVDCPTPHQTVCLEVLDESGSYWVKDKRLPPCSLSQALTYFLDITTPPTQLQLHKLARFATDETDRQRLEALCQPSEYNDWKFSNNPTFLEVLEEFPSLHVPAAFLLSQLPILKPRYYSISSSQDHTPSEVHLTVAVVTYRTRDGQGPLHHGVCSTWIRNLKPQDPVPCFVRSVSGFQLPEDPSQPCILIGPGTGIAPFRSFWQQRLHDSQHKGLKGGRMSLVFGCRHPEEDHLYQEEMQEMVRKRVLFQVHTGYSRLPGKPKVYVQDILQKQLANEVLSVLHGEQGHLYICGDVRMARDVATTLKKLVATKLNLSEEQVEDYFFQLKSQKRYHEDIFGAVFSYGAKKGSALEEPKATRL
Briefly: Inhibition of LPS-induced iNOS expression in mouse RAW264.7 cells at 5 to 10 ug/ml pretreated for 1 hr followed by LPS stimulation for 20 hrs by immunoblotting method. Type of data set: cell-based. In general terms: In western blotting, separated proteins are transferred to a membrane and probed.

Data set [3] relates to RAW264.7. Briefly: Downregulation of TNFalpha mRNA expression levels in mouse RAW264.7 cells at 5 to 10 ug/ml preincubated for 1 hr followed by LPS-stimulation for 4 hrs by qRT-PCR method. It counts as functional, cell-based.
Data set [4] relates to RAW264.7. Nature of the data set: Antiinflammatory activity in mouse RAW264.7 cells assessed as inhibition of LPS-induced IL-6 production preincubated for 1 hr followed by LPS addition for 20 hrs by sandwich ELISA. It counts as functional, cell-based. (ELISA stands for enzyme-linked immunosorbent assay.)
The test system of data set [5] is RAW264.7. Briefly: Downregulation of iNOS mRNA expression levels in mouse RAW264.7 cells at 5 to 10 ug/ml preincubated for 1 hr followed by LPS-stimulation for 4 hrs by qRT-PCR method. Type of data set: functional, cell-based.
For data set [6], the species on record is Mus musculus. Nature of the data set: Inhibition of ERK-phosphorylation in mouse RAW264.7 cells at 5 to 10 ug/ml preincubated for 1 hr followed by LPS-stimulation for 1 hr by Western blot analysis. Type of data set: cell-based.
The target of data set [7] is Protein c-Fos (Mus musculus) (UniProt P01101). Briefly: Inhibition of c-fos-phosphorylation in mouse RAW264.7 cells preincubated for 1 hr followed by LPS-stimulation for 20 hrs by Western blot analysis. It counts as cell-based.
The target of data set [8] is MAP kinase p38 (Mus musculus) (UniProt P47811+O08911+Q9WUI1+Q9Z1B7). Nature of the data set: Inhibition of p38-phosphorylation in mouse RAW264.7 cells at 5 to 10 ug/ml preincubated for 1 hr followed by LPS-stimulation for 1 hr by Western blot analysis. Type of data set: cell-based.
Data set [9] deals with Signal transducer and activator of transcription 3 (Mus musculus) (UniProt P42227). Briefly: Inhibition of STAT3 phosphorylation at S727 residue in mouse RAW264.7 cells preincubated for 1 hr followed by LPS-stimulation for 20 hrs by Western blot analysis. Type of data set: cell-based.
For data set [10] the target is unchanged. Nature of the data set: Inhibition of STAT3 phosphorylation at Y705 residue in mouse RAW264.7 cells preincubated for 1 hr followed by LPS-stimulation for 20 hrs by Western blot analysis. It counts as cell-based.
Data set [11] concerns the target T2, NF-kappa-B inhibitor alpha (Mus musculus) (UniProt Q9Z1E3).
T2 sequence (whole entry): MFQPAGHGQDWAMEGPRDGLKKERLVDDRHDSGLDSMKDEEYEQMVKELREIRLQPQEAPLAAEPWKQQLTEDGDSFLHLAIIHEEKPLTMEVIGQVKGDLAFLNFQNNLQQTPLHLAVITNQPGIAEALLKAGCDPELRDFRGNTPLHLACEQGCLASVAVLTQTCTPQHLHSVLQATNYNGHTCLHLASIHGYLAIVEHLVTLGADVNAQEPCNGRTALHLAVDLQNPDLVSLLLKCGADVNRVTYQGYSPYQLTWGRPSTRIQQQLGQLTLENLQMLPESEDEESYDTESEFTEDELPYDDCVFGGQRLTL
Nature of the data set: Inhibition of IkappaBalpha degradation in mouse RAW264.7 cells at 5 to 10 ug/ml preincubated for 1 hr followed by LPS-stimulation for 1 hr by Western blot method. Type of data set: cell-based.

Data set [12] has as its system RAW264.7. Briefly: Cytotoxicity against mouse RAW264.7 cells assessed as decrease in cell viability incubated for 20 hrs by EZ-cytox assay. It counts as cell-based. The settings on record: RAW264.7, 20 h.
Data set [13] deals with RAW264.7. Nature of the data set: Cytotoxicity against mouse RAW264.7 cells assessed as decrease in cell viability at 1 to 12 ug/ml pretreated for 1 hr followed by LPS stimulation for 20 hrs by CCK8/EZ-cytox assay. Type of data set: cell-based. The following applies: raw264.7, 20 h.
Data set [14] addresses T2, NF-kappa-B inhibitor alpha (Mus musculus). Nature of the data set: Inhibition of IkappaBalpha phosphorylation in mouse RAW264.7 cells at 5 to 10 ug/ml preincubated for 1 hr followed by LPS-stimulation for 1 hr by Western blot method. Type of data set: cell-based.
Data set [15] concerns RAW264.7. Briefly: Antiinflammatory activity in mouse RAW264.7 cells assessed as inhibition of LPS-induced TNFalpha release preincubated for 1 hr followed by LPS addition for 20 hrs by sandwich ELISA. Type of data set: functional, cell-based.
For data set [16], the system named is RAW264.7. Nature of the data set: Downregulation of IL-6 mRNA expression levels in mouse RAW264.7 cells at 5 to 10 ug/ml preincubated for 1 hr followed by LPS-stimulation for 4 hrs by qRT-PCR method. Type of data set: functional, cell-based. For orientation: In qPCR the cycle at which signal appears reflects the starting amount.
The species named for data set [17] is Mus musculus. Briefly: Inhibition of JNK-phosphorylation in mouse RAW264.7 cells at 5 to 10 ug/ml preincubated for 1 hr followed by LPS-stimulation for 1 hr by Western blot analysis. It counts as cell-based.
For data set [18], the system named is RAW264.7. Nature of the data set: Inhibition of LPS-induced NO production in mouse RAW264.7 cells at 2 to 10 ug/ml preincubated for 1 hr followed by LPS-stimulation measured after 20 hrs by Griess assay. It counts as functional, cell-based.

Consider one molecule from ChEMBL document CHEMBL4020798, “Anti-inflammatory effects and corresponding mechanisms of cirsimaritin extracted from Cirsium japonicum var. maackii Maxim” (Bioorg Med Chem Lett, 2017).

Values after ≈ are worked out from the molar mass of the structure shown. Active and inactive are the calls of the source. The calls are words filed in the database; no cut-off is given here.

Signal transducer and activator of transcription 3 (Mus musculus), sequence (P42227 whole entry): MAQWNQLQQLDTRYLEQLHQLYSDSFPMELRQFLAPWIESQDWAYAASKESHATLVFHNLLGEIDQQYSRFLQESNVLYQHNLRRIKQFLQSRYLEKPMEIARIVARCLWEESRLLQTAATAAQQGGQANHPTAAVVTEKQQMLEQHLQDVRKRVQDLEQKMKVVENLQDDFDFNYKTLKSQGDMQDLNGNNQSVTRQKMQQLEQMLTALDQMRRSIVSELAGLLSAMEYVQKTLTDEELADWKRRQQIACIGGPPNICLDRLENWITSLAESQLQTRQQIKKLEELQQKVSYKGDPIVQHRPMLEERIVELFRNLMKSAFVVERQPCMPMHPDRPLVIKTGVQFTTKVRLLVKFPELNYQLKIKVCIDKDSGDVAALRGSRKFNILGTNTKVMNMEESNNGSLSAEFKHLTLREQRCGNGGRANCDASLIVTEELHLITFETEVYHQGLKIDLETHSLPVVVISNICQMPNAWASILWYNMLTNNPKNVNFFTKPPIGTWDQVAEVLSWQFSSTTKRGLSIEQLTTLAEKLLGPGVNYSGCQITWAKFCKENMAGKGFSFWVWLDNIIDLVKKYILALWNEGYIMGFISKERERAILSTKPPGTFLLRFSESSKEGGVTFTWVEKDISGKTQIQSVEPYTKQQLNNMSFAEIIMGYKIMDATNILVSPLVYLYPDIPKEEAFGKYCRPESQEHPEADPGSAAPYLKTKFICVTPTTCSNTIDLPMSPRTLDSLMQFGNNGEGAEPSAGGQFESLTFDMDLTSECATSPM
RAC-alpha serine/threonine-protein kinase (Mus musculus), sequence (P31750 whole entry): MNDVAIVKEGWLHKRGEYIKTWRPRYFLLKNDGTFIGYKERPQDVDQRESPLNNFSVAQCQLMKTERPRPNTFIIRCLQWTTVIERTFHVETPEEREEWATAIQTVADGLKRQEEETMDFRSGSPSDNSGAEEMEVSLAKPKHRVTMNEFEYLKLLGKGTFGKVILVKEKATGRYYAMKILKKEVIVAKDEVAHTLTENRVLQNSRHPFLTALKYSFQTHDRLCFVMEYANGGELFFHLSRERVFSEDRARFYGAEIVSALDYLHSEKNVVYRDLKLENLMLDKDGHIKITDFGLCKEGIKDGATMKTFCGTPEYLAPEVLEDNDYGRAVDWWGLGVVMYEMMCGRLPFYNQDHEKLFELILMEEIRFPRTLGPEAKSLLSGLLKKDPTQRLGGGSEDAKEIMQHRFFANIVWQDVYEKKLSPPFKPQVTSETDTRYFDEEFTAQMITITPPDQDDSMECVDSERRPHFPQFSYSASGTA
Protein c-Fos (Mus musculus), sequence (P01101 whole entry): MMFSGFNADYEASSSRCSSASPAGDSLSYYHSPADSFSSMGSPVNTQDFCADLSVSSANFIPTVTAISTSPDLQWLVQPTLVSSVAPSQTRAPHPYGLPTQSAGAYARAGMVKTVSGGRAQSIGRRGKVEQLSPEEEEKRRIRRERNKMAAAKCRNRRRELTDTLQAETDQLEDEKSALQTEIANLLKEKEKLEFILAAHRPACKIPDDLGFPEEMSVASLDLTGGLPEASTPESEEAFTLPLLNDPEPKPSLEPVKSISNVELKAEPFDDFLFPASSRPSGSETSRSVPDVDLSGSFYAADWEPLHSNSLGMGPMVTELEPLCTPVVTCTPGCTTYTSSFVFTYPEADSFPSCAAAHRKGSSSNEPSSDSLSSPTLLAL

What is called IC50 is the point on the concentration scale where inhibition reaches its midpoint. Turning to `COc1cc2oc(-c3ccc(O)cc3)cc(=O)c2c(O)c1OC` [CIRSIMARITIN], the inhibition result (in data set [1]; in data set [2]; in [11]; in data set [14]; with RAW264.7 [18]) was “Active” throughout. Besides, the Activity result was “Dose-dependent effect” in the data set on RAW264.7 [3], “Dose-dependent effect” in the data set with RAW264.7 [5], “Non-Toxic” in the data set with RAW264.7 [13] and “Dose-dependent effect” with RAW264.7 [16]. Further, the inhibition result (with RAW264.7 [4]; in [7]; in data set [9]; in data set [10]; in the data set with RAW264.7 [15]) was “Dose-dependent effect” in each case. In addition, the inhibition result (in the data set filed under Mus musculus [6]; in data set [8]; in the data set filed under Mus musculus [17]) was “inactive” in each case. Also, in the data set on RAW264.7 [12], the IC50 came to 111 µg/mL (≈ 353 µM).
